# Test results: patent US20020026053A1, “Novel 3-(substituted) -2- indolinones compounds and use thereof as inhibitors of protein kinase activity” (priority 1997, published 2002)
# Molecular target: T1, Met receptor (EGFR/Met chimeric cells, EMR) (Homo sapiens, UniProt P08581)
# T1 construct: expressed in transfected cells; the other entry of the earlier key: EGFR (P00533, Epidermal growth factor receptor)
# Test: Met Autophosphorylation Assay
# Format: biochemical
# In short: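 Met phosphorylation was measured by capture ELISA. Lysates (90 μg/100 μl, HNTG plus 1 mM PMSF) from transiently transfected EGFR/Met chimera (EMR) cells were bound for 60 min at room temperature to wells holding rabbit anti-Met (C-28) on goat anti-rabbit coat. Phosphotyrosine was the read-out.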
# T1 sequence (P08581 with tags, fused parts or gaps): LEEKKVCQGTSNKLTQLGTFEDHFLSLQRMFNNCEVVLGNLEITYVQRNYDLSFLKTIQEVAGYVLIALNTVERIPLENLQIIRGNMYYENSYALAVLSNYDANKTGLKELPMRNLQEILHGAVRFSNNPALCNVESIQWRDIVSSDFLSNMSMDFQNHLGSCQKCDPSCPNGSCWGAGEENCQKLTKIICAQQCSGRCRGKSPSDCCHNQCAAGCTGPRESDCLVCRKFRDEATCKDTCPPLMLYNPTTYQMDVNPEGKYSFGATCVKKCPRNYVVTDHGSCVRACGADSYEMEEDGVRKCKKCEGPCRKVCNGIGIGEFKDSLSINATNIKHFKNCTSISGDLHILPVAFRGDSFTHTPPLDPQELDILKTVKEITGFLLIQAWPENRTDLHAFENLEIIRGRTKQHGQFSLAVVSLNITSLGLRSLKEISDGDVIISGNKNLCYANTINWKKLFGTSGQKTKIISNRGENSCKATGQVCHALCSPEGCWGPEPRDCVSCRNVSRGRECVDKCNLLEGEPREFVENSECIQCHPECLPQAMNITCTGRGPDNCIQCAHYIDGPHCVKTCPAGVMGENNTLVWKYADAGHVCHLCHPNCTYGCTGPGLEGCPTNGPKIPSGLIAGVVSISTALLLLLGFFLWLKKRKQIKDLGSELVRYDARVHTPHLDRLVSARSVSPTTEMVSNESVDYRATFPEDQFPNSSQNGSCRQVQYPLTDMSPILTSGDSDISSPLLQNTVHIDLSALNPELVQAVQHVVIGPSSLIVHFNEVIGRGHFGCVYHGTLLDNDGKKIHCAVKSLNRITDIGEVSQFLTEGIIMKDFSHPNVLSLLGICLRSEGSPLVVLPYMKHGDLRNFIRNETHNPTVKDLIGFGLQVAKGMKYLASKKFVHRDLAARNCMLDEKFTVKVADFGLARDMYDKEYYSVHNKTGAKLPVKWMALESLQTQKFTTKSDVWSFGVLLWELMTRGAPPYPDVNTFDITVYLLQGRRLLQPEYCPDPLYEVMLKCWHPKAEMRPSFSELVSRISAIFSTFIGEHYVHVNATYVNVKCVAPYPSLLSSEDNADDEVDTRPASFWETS
row,Structure (SMILES),Met Kinase % Inhibition (P.130) [%]
1,CCN(CC)c1ccc(C=C2C(=O)Nc3ccc(S(=O)(=O)NC)cc32)c(O)c1 [10734/D05],55.0
2,CCOc1cccc(C=C2C(=O)Nc3ccc(CCCl)cc32)c1O [10734/G02],63.6
3,CNS(=O)(=O)c1ccc2c(c1)C(=Cc1ccc(O)c(Br)c1)C(=O)N2 [10734/D09],88.0
4,CNS(=O)(=O)c1ccc2c(c1)C(=Cc1ccc([N+](=O)[O-])cc1)C(=O)N2 [10734/D06],30.6
5,CCOc1cccc(C=C2C(=O)Nc3ccc(S(=O)(=O)Nc4ccc(C(F)(F)F)cc4)cc32)c1O [10734/E02],66.9
6,Cc1c(Br)cc(Br)c2c1C(=Cc1cc(Cl)ccc1O)C(=O)N2 [10734/H04],64.2
7,CCOc1cccc(C=C2C(=O)Nc3c(Br)cc(Br)cc32)c1O [10734/A02],51.1
8,O=C1Nc2ccc(CCCl)cc2C1=Cc1ccc([N+](=O)[O-])cc1 [10734/G06],43.1
9,O=C1Nc2ccc(CCCl)cc2C1=Cc1ccc(O)c(Br)c1 [10734/G09],84.7
10,CCOC(=O)CCc1c(C(=O)OCC)[nH]c(C=C2C(=O)Nc3c(Br)cc(Br)c(C)c32)c1CC(=O)OCC [10718/H05],13.5
11,CNS(=O)(=O)c1ccc2c(c1)C(=Cc1cccc(F)c1O)C(=O)N2 [10734/D08],49.8
12,Cc1c(Br)ccc2c1C(=Cc1ccc(C(C)(C)C)cc1)C(=O)N2 [10734/C10],11.6
13,Cc1c(Br)ccc2c1C(=Cc1ccc(O)c(Br)c1)C(=O)N2 [10734/C09],88.6
14,O=C1Nc2ccc(S(=O)(=O)N3CCOCC3)cc2C1=Cc1ccc(O)c(Br)c1 [10734/F09],93.9
15,COC(=O)c1[nH]c(C)c(C=C2C(=O)Nc3c(Br)cc(Br)c(C)c32)c1C(=O)OC [10718/H07],52.7
16,O=C1Nc2ccc(S(=O)(=O)N3CCOCC3)cc2C1=Cc1cc(Cl)ccc1O [10734/F04],76.5
17,O=C1Nc2ccc(CCCl)cc2C1=Cc1ccc(Br)s1 [10734/G11],20.2
18,CC(C)(C)c1ccc(C=C2C(=O)Nc3ccc(I)cc32)cc1 [10734/B10],82.6
19,CCN(CC)c1ccc(C=C2C(=O)Nc3ccc(I)cc32)c(O)c1 [10734/B05],67.8
20,O=C1Nc2c(Br)cc(Br)cc2C1=Cc1ccc([N+](=O)[O-])cc1 [10734/A06],46.9
21,O=C1Nc2ccc(S(=O)(=O)N3CCOCC3)cc2C1=Cc1ccc(Br)s1 [10734/F11],47.3
22,CC(C)(C)c1ccc(C=C2C(=O)Nc3ccc(S(=O)(=O)Nc4ccc(C(F)(F)F)cc4)cc32)cc1 [10734/E10],27.9
23,O=C1Nc2ccc(CCCl)cc2C1=Cc1cc(Cl)cc(Cl)c1O [10734/G03],93.4
24,Cc1c(Br)ccc2c1C(=Cc1cc(Cl)ccc1O)C(=O)N2 [10734/C04],90.7
25,CCOc1cccc(C=C2C(=O)Nc3ccc(S(=O)(=O)NC)cc32)c1O [10734/D02],46.0
26,O=C1Nc2c(Br)cc(Br)cc2C1=Cc1cc(Br)cc(Br)c1O [10734/A07],89.3
27,O=C1Nc2ccc(S(=O)(=O)Nc3ccc(C(F)(F)F)cc3)cc2C1=Cc1cc(Cl)ccc1O [10734/E04],88.9
28,CNS(=O)(=O)c1ccc2c(c1)C(=Cc1ccc(C(C)(C)C)cc1)C(=O)N2 [10734/D10],20.6
